Test results: patent publication US7241937B2, “Methods and materials for improving plant drought tolerance” (Ceres, Inc., priority 2004, dated 2007)

System: NCED3 transgenic seeds
Experiment: GA3 treatment: germination of NCED3 transgenic R2 seeds on growth medium containing GA3
Assay type: in vivo, rice
Description: GA3 treatment: R2 seeds were surface-sterilized with 20% bleach and germinated on half-strength MS containing 0.4 mL/L Finale and filter-sterilized GA3 (gibberellin) to final concentrations of 0, 10, 100, 250, 500 or 1,000 μM.
ABA and GA3 (gibberellin) can act antagonistically in seed germination. To determine whether GA3 could release the prolonged dormancy evident in the NCED3 transgenic seeds, GA3 was added to the growth medium on which the seeds were placed for germination. […] Thus, addition of exogenous of GA3 can, at least in part, overcome the off-type of prolonged dormancy.

C=C1C[C@]23C[C@@]1(O)CC[C@H]2[C@@]12C=C[C@H](O)[C@@](C)(C(=O)O1)[C@H]2[C@@H]3C(=O)O [GA3]
seed germination (release of prolonged dormancy) (GA3 at a concentration as low as 10 μM in the growth medium): accelerated germination
seedling elongation (higher concentrations of GA3): more elongated
seed germination (higher concentrations of GA3 (100-1,000 μM) compared with 10 μM): did not significantly improve seed germination
